Reference: patent US9868954B2, “Reduction of TGFβ signaling in myeloid cells in the treatment of cancer” (The United States of America, as represented by the …, priority 2011, dated 2018)

Test system: Gr-1+CD11b+ myeloid cells from Tgfbr2^myeKO
Experiment: Expression of IL-10, IL-4 and PF4 (Western blotting, quantitative PCR) in sorted Gr-1+CD11b+ myeloid cells cultured with pathway inhibitors
Assay type: cell-based, mice
Conditions: myeloid cells lacking Tgfbr2, cultured 6 hours with inhibitor; mRNA level and protein level
Procedure: Gr-1+CD11b+ myeloid cells were sorted with MACS from Tgfbr2^myeKO and cultured for 6 hours with an inhibitor of GSK3 (SB216763, Sigma) or PI3K (LY294002, Calbiochem) at different doses (2, 5, and 10 μM for the GSK3 inhibitor; 5, 10, and 20 μM for the PI3K inhibitor). SB216763 is a potent and selective ATP-competitive inhibitor of the serine/threonine protein kinas GSK α and β. […] GSK3 Western blotting was performed to detect inhibiting activity. The expression of IL-10, IL-4, and PF4 was examined using Western blotting and quantitative PCR.

Structure (SMILES)	expression of IL-10, IL-4, and PF4
Cc1ccc2nc(NCCN)c3ncc(C)n3c2c1 [BMS-345541]	did not show a significant effect
Cn1cc(C2=C(c3ccc(Cl)cc3Cl)C(=O)NC2=O)c2ccccc21 [SB216763]	reversed the down-regulation of IL-10, IL-4, and PF4
